From patent US10272124B2, “Use of helminthostachys, ugonins or flavone-based compounds for the treatment or prevention of metabolic diseases” (National Research Institute of Chinese Medicine, Ministry …, priority 2016, dated 2019) come the findings set out here.

In one experiment the test system is BRIN-BD11 cells. Put plainly: Glucose stimulated insulin secretion (HTRF insulin assay). The conditions noted are these: below the concentration of 20 μM; 16.7 mM glucose, 20 min. It is filed as cell-based, rat. As to the method: The clonal rat pancreatic β-cell line (BRIN-BD11) was grown as a monolayer in culture dishes at 37° C. under 5% CO2/air with 90% humidity. Cells were maintained in RPMI 1640 medium containing 10% foetal bovine serum and 5% penicillin and streptomycin mixture.
BRIN-BD11 cells were plated on 24-well plates (0.5×10^5 cells/well) and incubated for 48 hours with media containing 5.6 mM glucose. Before performing acute insulin secretion test, cells were pre-incubated with 1.1 mM glucose in Krebs-Ringer Bicarbonate Buffer for 45 min at 37° C. Then, cells were challenged with vehicle (DMSO) or various ugonins in 16.7 mM glucose in Krebs-Ringer Bicarbonate Buffer for 20 min. The media were collected for insulin determination. Insulin concentrations were quantified by the Homogeneous Time-Resolved Fluorescence (HTRF) insulin assay and normalized to a million of total cell numbers.
Data were presented as mean±standard error of the mean. Statistical analyses were performed using GraphPad Prism (GraphPad, CA, USA). Single parameter-based comparisons were obtained from the unpaired student's t-test. P values less than 0.05 and 0.01 were considered to be significant.
In general terms: In TR-FRET formats the signal depends on donor and acceptor labels being close together.

A further experiment relates to Akt. Put plainly: Akt kinase activity assay (GSK3-α phosphorylation, Western blotting). The format is biochemical. How it is done:
Akt kinase activity was determined by commercial Akt assay kit according to the manufacturer's directions. Phosphorylation states of GSK3-α were determined by Western blotting, so as to evaluate the effect of various ugonins on Akt activity.
In general terms: In western blotting, separated proteins are transferred to a membrane and probed.

As to `COc1c(-c2ccc(O)cc2)oc2c3c(cc(O)c2c1=O)OC(C)C3(C)C` (stereo not shown) [ugonin C, 5-hydroxy-2-(4-hydroxyphenyl)-3-methoxy-8,9,9-trimethyl-8,9-dihydro-4H-furo[2,3-h]chromen-4-one], in the experiment on BRIN-BD11 cells, the “insulin secretion of BRIN-BD11 cells” value was “significantly enhance”. With `CC1Oc2cc(O)c3c(=O)c(O)c(-c4ccc(O)cc4)oc3c2C1(C)C` (stereo not shown) [ugonin F, 3,5-dihydroxy-2-(4-hydroxyphenyl)-8,9,9-trimethyl-8,9-dihydro-4H-furo[2,3-h]chromen-4-one], in the experiment on BRIN-BD11 cells, the “insulin secretion of BRIN-BD11 cells” value is given as “significantly enhance”. As for `C=C1CCCC(C)(C)[C@H]1Cc1c(O)cc2oc(-c3ccc(O)c(O)c3)cc(=O)c2c1O` [ugonin J, (R)-2-(3,4-dihydroxyphenyl)-6-((2,2-dimethyl-6-methylenecyclohexyl)methyl)-5,7-dihydroxy-4H-chromen-4-one], the “insulin secretion of BRIN-BD11 cells” value with BRIN-BD11 cells is on record as “significantly enhance”. In addition, in the experiment with Akt, the Akt activity entry is recorded as “promote Akt activity”. Regarding `C=C1CCCC(C)(C)[C@H]1Cc1c(OC)cc2oc(-c3ccc(O)c(O)c3)cc(=O)c2c1O` [ugonin K, (R)-2-(3,4-dihydroxyphenyl)-6-((2,2-dimethyl-6-methylenecyclohexyl)methyl)-5-hydroxy-7-methoxy-4H-chromen-4-one], in the experiment on BRIN-BD11 cells, the “insulin secretion of BRIN-BD11 cells” value was “significantly enhance”. For the molecule `CC1=CCCC(C)(C)C1Cc1c(O)c(O)cc2oc3c(=O)c4c(O)cc(O)cc4oc3c12` (stereo not shown) [ugonin M, 1,3,7,8-tetrahydroxy-6-((2,6,6-trimethylcyclohex-2-en-1-yl)methyl)-11H-benzofuro[3,2-b]chromen-11-one], the “insulin secretion of BRIN-BD11 cells” value in the experiment with BRIN-BD11 cells is reported as “significantly enhance”. On to `CC1Oc2cc3oc(-c4ccc(O)c(O)c4)cc(=O)c3c(O)c2C1(C)C` (stereo not shown) [ugonin T, 7-(3,4-dihydroxyphenyl)-4-hydroxy-2,3,3-trimethyl-2,3-dihydro-5H-furo[3,2-g]chromen-5-one], for which, in the experiment with BRIN-BD11 cells, the “insulin secretion of BRIN-BD11 cells” value is recorded as “significantly enhance”.
